Where two headings read alike, the source gives them in different places.
Columns and labels:
recombinant PDK-1 = target: T1, recombinant PDK-1 (Homo sapiens, UniProt O15530); test: PDK-1 kinase activity (Upstate kit, cell-free); type: biochemical
T1 construct: purchased Upstate (Lake Placid, N.Y.)
T1 sequence (O15530 1-556): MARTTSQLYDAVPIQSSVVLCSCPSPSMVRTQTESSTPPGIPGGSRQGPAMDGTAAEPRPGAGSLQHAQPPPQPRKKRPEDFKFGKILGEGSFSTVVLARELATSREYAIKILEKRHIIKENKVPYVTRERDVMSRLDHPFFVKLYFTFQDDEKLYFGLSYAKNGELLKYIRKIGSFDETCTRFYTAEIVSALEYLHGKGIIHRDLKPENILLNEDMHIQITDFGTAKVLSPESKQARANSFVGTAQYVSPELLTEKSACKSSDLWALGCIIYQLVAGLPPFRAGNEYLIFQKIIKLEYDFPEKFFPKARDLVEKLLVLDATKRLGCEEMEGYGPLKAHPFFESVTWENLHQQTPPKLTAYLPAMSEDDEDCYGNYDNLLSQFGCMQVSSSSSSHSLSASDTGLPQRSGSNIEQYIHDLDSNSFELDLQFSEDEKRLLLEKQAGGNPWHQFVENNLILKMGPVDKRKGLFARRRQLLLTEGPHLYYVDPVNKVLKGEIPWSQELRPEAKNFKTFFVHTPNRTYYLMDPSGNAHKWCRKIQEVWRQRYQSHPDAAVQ
Method: PDK-1 kinase activity This in vitro assay was performed using a PDK-1 kinase assay kit (Upstate, Lake Placid, N.Y.) according to the vendor's instructions. This cell-free assay is based on the ability of recombinant PDK-1, in the presence of DMSO vehicle or the test agent, to activate its downstream kinase serum- and glucocorticoid-regulated kinase (SGK.) which, in turn, phosphorylates the Akt/SGK-specific peptide substrate RPRAATF with [γ-^32]-ATP. […] The reported values represent the means of two independent determinations.

PC-3 cells = test: PC-3 cell viability analysis (MTT); type: cell-based, human
Method: Cell Culture PC-3 (p53−/−) human androgen-nonresponsive prostate cancer cells were purchased from the American […] (Manassas, Va.). Cells were cultured in RPMI 1640 medium (Gibco, Grand Island, N.Y.) supplemented with 10% fetal bovine serum (FBS; Gibco) at 37° C. in a humidified incubator containing 5% CO2.
Cell viability analysis The effect of 4-[5-(4-methylphenyl)-3-(trifluoromethyl)-1H-pyrazol-1-yl]benzenesulfonamide and its derivatives on PC-3 cell viability was assessed by using the MTT {[3-(4,5-dimethylthiazol-2-yl)-2,5-diphenyl-2H-tetrazolium bromide]} assay in six replicates. Cells were grown in 10% FBS-supplemented RPMI 1640 medium in 96-well, flat bottomed plates for 24 h, and were exposed to various concentrations of compounds 1-36 dissolved in DMSO (final concentration≦0.1%) in 1% serum-containing RPMI 1640 medium for different time intervals. Controls received DMSO vehicle at a concentration equal to that in drug-treated cells. The medium was removed, replaced by 200 μl of 0.5 mg/ml of MTT in 10% FBS-containing RPMI-1640 medium, and cells were incubated in the CO2 incubator at 37° C. for 2 h. Supernatants were removed from the wells, and the reduced MTT dye was solubilized in 200 μL/well DMSO. Absorbance at 570 nm was determined on a plate reader.

phospho-473Ser Akt = test: Western blot of Akt and phospho-Akt in PC-3 cells; type: cell-based, human; settings: 5 μM and above
Method: Immunoblotting. The general procedure for the Western blot analysis of Akt and phospho-Akt is described as follows. Cells were washed in PBS, resuspended in SDS sample buffer sonicated by an ultrasonic sonicator for 5 sec, and boiled for 5 min. After brief centrifugation, equivalent protein concentrations from the soluble fractions were resolved in 10% SDS-polyacrylamide gels on a Minigel apparatus, and transferred to a nitrocellulose membrane using a semi-dry transfer cell. The transblotted membrane was washed three times with TBS containing 0.05% Tween 20 (TBST). After blocking with TBST containing 5% nonfat milk for 60 min., the membrane was incubated with the primary antibody at 1:1,000 dilution in TBST-5% low fat milk at 4° C. for 12 h, and was then washed three times with TBST. The membrane was probed with goat anti-rabbit IgG-HRP conjugates (1:1,000) for 1 h at room temperature, and was washed with TBST three times. The immunoblots were visualized by enhanced chemiluminescence.

immunoprecipitated Akt = test: Direct inhibition of immunoprecipitated Akt kinase activity; type: biochemical, human
Akt = test: Immunoprecipitated Akt kinase assay, drug-treated PC-3 cells (intracellular Akt activation); type: cell-based; settings: Homo sapiens, PC-3 cells treated 2 h, read-out: IC50 for inhibiting intracellular Akt activation
Method: Immunoprecipitated Akt kinase assay Akt immunoprecipitation was carried out according to a modified, published procedure. PC-3 cells were treated with DMSO vehicle or the test agents at the indicated concentrations for 2 h and then lysed at 4° C. for 1 h in buffer A containing 50 mM Tris-HCl, pH 7.5, 1% Triton X-100, 1 mM EDTA, 1 mM EGTA, 50 mM sodium fluoride, 10 mM sodium β-glycerophosphate. 0.1% 2-mercaptoethanol, 0.1 mM phenylmethylsiilfonyl fluoride, and 1 μg/mL each of aprotinin, pepstatin, and leupeptin. Cell lysates were centrifuged at 10,000 g for 5 min, and the supernatant was treated with anti-Akt at 4° C. for 60 min., followed by protein G-agarose beads for additional 60 min. The immunoprecipitate was used to analyze Akt kinase activity by using the Akt/SGK-specific peptide substrate RPRAATF as described above. Values represented the means of two independent determinations.

[1] = inhibiting recombinant PDK-1 kinase activity, read-out: IC50 PDK-1
[2] = inducing apoptotic death in PC-3 cells / PC-3 cell viability, read-out: IC50 PC-3

“4-[5-(4′triflouromethyl[1,1′-biphenyl]-4-yl)-3-(trifluoromethyl)-1H-1-yl]benzenesulfonamide [Compound 51]” was tested, and the IC50 (recombinant PDK-1; [1]) was 18 µM and the IC50 (PC-3 cells; [2]) was 8 µM.
Work on “5-(2-Phenanthrenyl)-3-(trifluoromethyl)-4-(1H-tetrazol-5-ylmethylphenyl)-1H-pyrazole [Compound 69]” yielded an IC50 (recombinant PDK-1; [1]) of 45 µM and an IC50 (PC-3 cells; [2]) of 27 µM.
“5-(2-Phenanthrenyl)-3-(trifluoromethyl)-4-(1H-tetrazol-5-ylphenyl)-1H-pyrazole [Compound 64]” gave an IC50 (recombinant PDK-1; [1]) of 52 µM and an IC50 (PC-3 cells; [2]) of 32 µM.
`NS(=O)(=O)c1ccc(-n2nc(C(F)(F)F)cc2-c2ccc3c(ccc4ccccc43)c2)cc1` [Compound 59, 4-[5-(2-phenanthrenyl)-3-(trifluoromethyl)-1H-1-yl]benzenesulfonamide] was tested, and the “Akt dephosphorylation (Western blot)” value (phospho-473Ser Akt) was “significant Akt dephosphorylation”, the IC50 (PC-3 cells; Homo sapiens, PC-3, 24 h, 1% FBS-containing RPMI 1640 medium, read-out: dose required to induce 50% PC-3 cell death) was 5 µM and the IC50 (PC-3 cells; Homo sapiens, inducing apoptotic death in PC-3 cells / PC-3 cell viability, read-out: IC50 PC-3) was 5 µM. The “direct inhibitory effect on immunoprecipitated Akt activity” value (immunoprecipitated Akt) was “Neither compound 59 nor other the other compounds displayed a direct inhibitory effect” and the IC50 (Akt) was 5 µM.
In the case of `O/N=C/c1ccc(-n2nc(C(F)(F)F)cc2-c2ccc3c(ccc4ccccc43)c2)cc1` [Compound 65, 4-5[-(2-Phenanthrenyl)-3-(trifluoromethyl)-1H-pyraxol-1-yl]-benzaldehyde oxime], the IC50 (recombinant PDK-1) is reported as 25 µM.
